{
  "source": "patent US20230085307A1",
  "about": "“PYRIDAZINONE COMPOUND AND HERBICIDE” (NISSAN CHEMICAL CORPORATION, priority 2019, published 2023)",
  "key": {"green foxtail [1]": {"system": "green foxtail", "experiment": "Test Example 4: herbicidal effect by soil treatment (Table 19, symbol G)", "format": "in vivo, green foxtail (Setaria viridis)", "conditions": "AAH 320 g/ha", "in_short": "(§1)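 Soil-surface application: an emulsion agent diluted with water to the predetermined dose is sprayed uniformly over seeds lying under roughly 1.5 cm of sterilized diluvial soil. Boxes stay in a greenhouse at 25° C. to 30° C. Three weeks later, each species is graded on previously defined criteria.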"}, "redroot pigweed [2]": {"system": "redroot pigweed", "experiment": "Test Example 5: herbicidal effect by foliage application, plastic box (Table 20, symbol N)", "format": "in vivo, redroot pigweed (Amaranthus retroflexus)", "conditions": "foliage application, AAH 320 g/ha, three weeks after application", "in_short": "(§2)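 Sow seeds spot-wise in sterilized diluvial soil; cover with ~1.5 cm soil. Grow 14 days in greenhouse, 25° C. to 30° C. Spray foliage with emulsion diluted to predetermined amount. Rate effect after 3 weeks.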"}, "blackgrass [3]": {"system": "blackgrass", "experiment": "Test Example 5: herbicidal effect by foliage application, plastic box (Table 20, symbol J)", "format": "in vivo, blackgrass (Alopecurus myosuroides)", "conditions": "foliage application, AAH 320 g/ha, three weeks after application", "in_short": "as §2"}, "redroot pigweed [4]": {"system": "redroot pigweed", "experiment": "Test Example 4: herbicidal effect by soil treatment (Table 19, symbol N)", "format": "in vivo, redroot pigweed (Amaranthus retroflexus)", "conditions": "AAH 320 g/ha", "in_short": "as §1"}, "lambsquarters [5]": {"system": "lambsquarters", "experiment": "Test Example 5: herbicidal effect by foliage application, plastic box (Table 20, symbol O)", "format": "in vivo, lambsquarters (Chenopodium album)", "conditions": "foliage application, AAH 320 g/ha, three weeks after application", "in_short": "as §2"}, "barnyard grass [6]": {"system": "barnyard grass", "experiment": "Test Example 4: herbicidal effect by soil treatment (Table 19, symbol H)", "format": "in vivo, barnyard grass (Echinochloa crus-galli)", "conditions": "AAH 320 g/ha", "in_short": "as §1"}, "Chinese sprangletop": {"system": "Chinese sprangletop", "experiment": "Test Example 3: herbicidal effect by foliage application, Wagner pot (Table 18, symbol D)", "format": "in vivo, chinese sprangletop (Leptochloa chinensis)", "conditions": "320 g/ha", "in_short": "(§3)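 Plants were sown in alluvial soil held under 0.1–0.5 cm standing water and grown 14 days in a greenhouse at 25–30 °C. An emulsifiable formulation, water-diluted to the set dose, was then sprayed onto the foliage, and effects were scored three weeks later using previously defined criteria.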"}, "persian speedwell [7]": {"system": "persian speedwell", "experiment": "Test Example 4: herbicidal effect by soil treatment (Table 19, symbol R)", "format": "in vivo, Persian speedwell (Veronica persica)", "conditions": "AAH 320 g/ha", "in_short": "as §1"}, "southern crabgrass [8]": {"system": "southern crabgrass", "experiment": "Test Example 4: herbicidal effect by soil treatment (Table 19, symbol F)", "format": "in vivo, southern crabgrass (Digitaria ciliaris)", "conditions": "AAH 320 g/ha", "in_short": "as §1"}, "velvetleaf [9]": {"system": "velvetleaf", "experiment": "Test Example 4: herbicidal effect by soil treatment (Table 19, symbol M)", "format": "in vivo, velvetleaf (Abutilon theophrasti)", "conditions": "AAH 320 g/ha", "in_short": "as §1"}, "wild oat [10]": {"system": "wild oat", "experiment": "Test Example 5: herbicidal effect by foliage application, plastic box (Table 20, symbol I)", "format": "in vivo, wild oat (Avena fatua)", "conditions": "foliage application, AAH 320 g/ha, three weeks after application", "in_short": "as §2"}, "velvetleaf [11]": {"system": "velvetleaf", "experiment": "Test Example 5: herbicidal effect by foliage application, plastic box (Table 20, symbol M)", "format": "in vivo, velvetleaf (Abutilon theophrasti)", "conditions": "foliage application, AAH 320 g/ha, three weeks after application", "in_short": "as §2"}, "barnyard grass [12]": {"system": "barnyard grass", "experiment": "Test Example 5: herbicidal effect by foliage application, plastic box (Table 20, symbol H)", "format": "in vivo, barnyard grass (Echinochloa crus-galli)", "conditions": "foliage application, AAH 320 g/ha, three weeks after application", "in_short": "as §2"}, "lambsquarters [13]": {"system": "lambsquarters", "experiment": "Test Example 4: herbicidal effect by soil treatment (Table 19, symbol O)", "format": "in vivo, lambsquarters (Chenopodium album)", "conditions": "AAH 320 g/ha", "in_short": "as §1"}, "Italian ryegrass [14]": {"system": "Italian ryegrass", "experiment": "Test Example 4: herbicidal effect by soil treatment (Table 19, symbol K)", "format": "in vivo, Italian ryegrass (Lolium multiflorum)", "conditions": "AAH 320 g/ha", "in_short": "as §1"}, "windgrass [15]": {"system": "windgrass", "experiment": "Test Example 4: herbicidal effect by soil treatment (Table 19, symbol L)", "format": "in vivo, windgrass (Apera spica-venti)", "conditions": "AAH 320 g/ha", "in_short": "as §1"}, "Italian ryegrass [16]": {"system": "Italian ryegrass", "experiment": "Test Example 5: herbicidal effect by foliage application, plastic box (Table 20, symbol K)", "format": "in vivo, Italian ryegrass (Lolium multiflorum)", "conditions": "foliage application, AAH 320 g/ha, three weeks after application", "in_short": "as §2"}, "blackgrass [17]": {"system": "blackgrass", "experiment": "Test Example 4: herbicidal effect by soil treatment (Table 19, symbol J)", "format": "in vivo, blackgrass (Alopecurus myosuroides)", "conditions": "AAH 320 g/ha", "in_short": "as §1"}, "windgrass [18]": {"system": "windgrass", "experiment": "Test Example 5: herbicidal effect by foliage application, plastic box (Table 20, symbol L)", "format": "in vivo, windgrass (Apera spica-venti)", "conditions": "foliage application, AAH 320 g/ha, three weeks after application", "in_short": "as §2"}, "persian speedwell [19]": {"system": "persian speedwell", "experiment": "Test Example 5: herbicidal effect by foliage application, plastic box (Table 20, symbol R)", "format": "in vivo, Persian speedwell (Veronica persica)", "conditions": "foliage application, AAH 320 g/ha, three weeks after application", "in_short": "as §2"}, "chickweed [20]": {"system": "chickweed", "experiment": "Test Example 5: herbicidal effect by foliage application, plastic box (Table 20, symbol P)", "format": "in vivo, common chickweed (Stellaria media)", "conditions": "foliage application, AAH 320 g/ha, three weeks after application", "in_short": "as §2"}, "wild oat [21]": {"system": "wild oat", "experiment": "Test Example 4: herbicidal effect by soil treatment (Table 19, symbol I)", "format": "in vivo, wild oat (Avena fatua)", "conditions": "AAH 320 g/ha", "in_short": "as §1"}, "southern crabgrass [22]": {"system": "southern crabgrass", "experiment": "Test Example 5: herbicidal effect by foliage application, plastic box (Table 20, symbol F)", "format": "in vivo, southern crabgrass (Digitaria ciliaris)", "conditions": "foliage application, AAH 320 g/ha, three weeks after application", "in_short": "as §2"}, "rice flat sedge": {"system": "rice flat sedge", "experiment": "Test Example 3: herbicidal effect by foliage application, Wagner pot (Table 18, symbol E)", "format": "in vivo, rice flat sedge (Cyperus iria)", "conditions": "320 g/ha", "in_short": "as §3"}, "green foxtail [23]": {"system": "green foxtail", "experiment": "Test Example 5: herbicidal effect by foliage application, plastic box (Table 20, symbol G)", "format": "in vivo, green foxtail (Setaria viridis)", "conditions": "foliage application, AAH 320 g/ha, three weeks after application", "in_short": "as §2"}, "chickweed [24]": {"system": "chickweed", "experiment": "Test Example 4: herbicidal effect by soil treatment (Table 19, symbol P)", "format": "in vivo, common chickweed (Stellaria media)", "conditions": "AAH 320 g/ha", "in_short": "as §1"}, "barnyard grass [25]": {"system": "barnyard grass", "experiment": "Test Example 3: herbicidal effect by foliage application, Wagner pot (Table 18, symbol H)", "format": "in vivo, barnyard grass (Echinochloa crus-galli)", "conditions": "320 g/ha", "in_short": "as §3"}},
  "data": [
    {"molecule": "CCCC(=O)Oc1c(C)nn(C)c(=O)c1-c1c(-c2cccc(C#N)c2)sc2ccccc12", "note": "[1-124]", "values": [
      {"measurement": "G: green foxtail, herbicidal effect rating", "setting": "green foxtail [1]", "result": "0 (Herbicidal rate of 5% or less (almost no effect))"},
      {"measurement": "N: redroot pigweed, herbicidal effect", "setting": "redroot pigweed [2]", "result": "4 (Herbicidal rate of 70% or more and less than 90%)"},
      {"measurement": "J: blackgrass, herbicidal effect", "setting": "blackgrass [3]", "result": "0 (Herbicidal rate of 5% or less (almost no effect))"},
      {"measurement": "N: redroot pigweed, herbicidal effect rating", "setting": "redroot pigweed [4]", "result": "0 (Herbicidal rate of 5% or less (almost no effect))"},
      {"measurement": "O: lambsquarters, herbicidal effect", "setting": "lambsquarters [5]", "result": "3 (Herbicidal rate of 40% or more and less than 70%)"},
      {"measurement": "H: barnyard grass, herbicidal effect rating", "setting": "barnyard grass [6]", "result": "0 (Herbicidal rate of 5% or less (almost no effect))"},
      {"measurement": "herbicidal effect on D (Chinese sprangletop), rating 0-5", "setting": "Chinese sprangletop", "result": "2 (Herbicidal rate of 20% or more and less than 40%)"},
      {"measurement": "R: persian speedwell, herbicidal effect rating", "setting": "persian speedwell [7]", "result": "0 (Herbicidal rate of 5% or less (almost no effect))"},
      {"measurement": "F: southern crabgrass, herbicidal effect rating", "setting": "southern crabgrass [8]", "result": "0 (Herbicidal rate of 5% or less (almost no effect))"},
      {"measurement": "M: velvetleaf, herbicidal effect rating", "setting": "velvetleaf [9]", "result": "0 (Herbicidal rate of 5% or less (almost no effect))"},
      {"measurement": "I: wild oat, herbicidal effect", "setting": "wild oat [10]", "result": "0 (Herbicidal rate of 5% or less (almost no effect))"},
      {"measurement": "M: velvetleaf, herbicidal effect", "setting": "velvetleaf [11]", "result": "3 (Herbicidal rate of 40% or more and less than 70%)"},
      {"measurement": "H: barnyard grass, herbicidal effect", "setting": "barnyard grass [12]", "result": "0 (Herbicidal rate of 5% or less (almost no effect))"},
      {"measurement": "O: lambsquarters, herbicidal effect rating", "setting": "lambsquarters [13]", "result": "0 (Herbicidal rate of 5% or less (almost no effect))"},
      {"measurement": "K: Italian ryegrass, herbicidal effect rating", "setting": "Italian ryegrass [14]", "result": "0 (Herbicidal rate of 5% or less (almost no effect))"},
      {"measurement": "L: windgrass, herbicidal effect rating", "setting": "windgrass [15]", "result": "0 (Herbicidal rate of 5% or less (almost no effect))"},
      {"measurement": "K: Italian ryegrass, herbicidal effect", "setting": "Italian ryegrass [16]", "result": "0 (Herbicidal rate of 5% or less (almost no effect))"},
      {"measurement": "J: blackgrass, herbicidal effect rating", "setting": "blackgrass [17]", "result": "0 (Herbicidal rate of 5% or less (almost no effect))"},
      {"measurement": "L: windgrass, herbicidal effect", "setting": "windgrass [18]", "result": "0 (Herbicidal rate of 5% or less (almost no effect))"},
      {"measurement": "R: persian speedwell, herbicidal effect", "setting": "persian speedwell [19]", "result": "1 (Herbicidal rate of 5% or more and less than 20%)"},
      {"measurement": "P: chickweed, herbicidal effect", "setting": "chickweed [20]", "result": "0 (Herbicidal rate of 5% or less (almost no effect))"},
      {"measurement": "I: wild oat, herbicidal effect rating", "setting": "wild oat [21]", "result": "0 (Herbicidal rate of 5% or less (almost no effect))"},
      {"measurement": "F: southern crabgrass, herbicidal effect", "setting": "southern crabgrass [22]", "result": "0 (Herbicidal rate of 5% or less (almost no effect))"},
      {"measurement": "herbicidal effect on E (rice flat sedge), rating 0-5", "setting": "rice flat sedge", "result": "3 (Herbicidal rate of 40% or more and less than 70%)"},
      {"measurement": "G: green foxtail, herbicidal effect", "setting": "green foxtail [23]", "result": "0 (Herbicidal rate of 5% or less (almost no effect))"},
      {"measurement": "P: chickweed, herbicidal effect rating", "setting": "chickweed [24]", "result": "3 (Herbicidal rate of 40% or more and less than 70%)"},
      {"measurement": "herbicidal effect on H (barnyard grass), rating 0-5", "setting": "barnyard grass [25]", "result": "0 (Herbicidal rate of 5% or less (almost no effect))"}
    ]}
  ]
}
